# Experimental data as given in ChEMBL document CHEMBL1157533 (J Med Chem, 2008).
# Columns and labels:
# [1] = Protein binding in Beagle dog serum; format: ADME, cell-free, Canis lupus familiaris; conditions: read-out: PPB (converted)
# [2] = biological target: Beta-1 adrenergic receptor (Homo sapiens, UniProt P08588); test: Agonist activity at human recombinant beta-1 adrenergic receptor expressed in CHO cells assessed as cAMP accumulation by enzyme immuno assay; format: functional, cell-based
# Beta-1 adrenergic receptor, sequence (P08588 whole entry): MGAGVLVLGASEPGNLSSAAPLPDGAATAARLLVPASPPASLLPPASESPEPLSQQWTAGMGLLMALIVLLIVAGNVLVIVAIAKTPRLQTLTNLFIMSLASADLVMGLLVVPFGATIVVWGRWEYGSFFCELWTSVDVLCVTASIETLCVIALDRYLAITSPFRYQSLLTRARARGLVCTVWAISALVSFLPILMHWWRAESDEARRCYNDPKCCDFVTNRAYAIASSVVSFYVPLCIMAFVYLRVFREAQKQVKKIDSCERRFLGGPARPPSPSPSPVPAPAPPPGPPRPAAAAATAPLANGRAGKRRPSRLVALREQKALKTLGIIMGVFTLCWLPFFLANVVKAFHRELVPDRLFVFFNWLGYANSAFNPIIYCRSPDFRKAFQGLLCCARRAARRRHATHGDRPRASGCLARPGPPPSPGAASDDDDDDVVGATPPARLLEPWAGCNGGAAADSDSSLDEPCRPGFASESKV
# [3] = biological target: Beta-3 adrenergic receptor (Homo sapiens, UniProt P13945); test: Agonist activity at human recombinant beta3 adrenergic receptor expressed in CHO cells assessed as cAMP accumulation by enzyme immuno assay; format: functional, cell-based
# Beta-3 adrenergic receptor, sequence (P13945 whole entry): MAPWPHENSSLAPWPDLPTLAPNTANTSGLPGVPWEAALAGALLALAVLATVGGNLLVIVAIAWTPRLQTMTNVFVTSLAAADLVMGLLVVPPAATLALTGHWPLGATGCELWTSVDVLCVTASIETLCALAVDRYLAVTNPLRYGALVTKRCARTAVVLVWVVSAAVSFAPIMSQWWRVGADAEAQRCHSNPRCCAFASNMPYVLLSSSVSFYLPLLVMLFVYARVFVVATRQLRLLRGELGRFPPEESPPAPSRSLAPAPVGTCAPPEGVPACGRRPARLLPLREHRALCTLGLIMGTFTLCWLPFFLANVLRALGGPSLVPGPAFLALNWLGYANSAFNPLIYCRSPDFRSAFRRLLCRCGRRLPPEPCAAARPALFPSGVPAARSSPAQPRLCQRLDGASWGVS
# [4] = biological target: Beta-2 adrenergic receptor (Homo sapiens, UniProt P07550); test: Agonist activity at human recombinant beta2 adrenergic receptor expressed in CHO cells assessed as cAMP accumulation by enzyme immuno assay; format: functional, cell-based
# Beta-2 adrenergic receptor, sequence (P07550 whole entry): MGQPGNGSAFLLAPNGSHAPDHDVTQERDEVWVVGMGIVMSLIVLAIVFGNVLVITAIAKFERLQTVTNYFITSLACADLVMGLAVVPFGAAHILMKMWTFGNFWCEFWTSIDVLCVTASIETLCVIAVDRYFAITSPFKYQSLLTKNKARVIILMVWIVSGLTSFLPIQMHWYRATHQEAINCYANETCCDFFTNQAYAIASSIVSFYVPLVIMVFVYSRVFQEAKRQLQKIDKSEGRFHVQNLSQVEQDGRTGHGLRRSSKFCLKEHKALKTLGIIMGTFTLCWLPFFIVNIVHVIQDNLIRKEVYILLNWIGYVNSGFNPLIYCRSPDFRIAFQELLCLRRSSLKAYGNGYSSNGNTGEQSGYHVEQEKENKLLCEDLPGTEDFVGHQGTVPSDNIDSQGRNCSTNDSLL
# [5] = Volume of distribution at steady state in Beagle dog at 0.1 mg/kg, iv by cassette assay; format: ADME, organism-based, Canis lupus familiaris; design: dose 0.1 mg/kg, route intravenous; conditions: in vivo, read-out: Vdss
# [6] = AUC (0 to 24 hrs) in Beagle dog at 0.1 mg/kg, iv by cassette assay; format: ADME, organism-based, Canis lupus familiaris; design: time < 24 hr, dose 0.1 mg/kg, route intravenous; conditions: plasma
# [7] = Terminal half life in Beagle dog at 0.1 mg/kg, iv by cassette assay; format: ADME, organism-based, Canis lupus familiaris; design: dose 0.1 mg/kg, route intravenous; conditions: in vivo, read-out: beta t1/2 (converted)
# [8] = Bioavailability in Beagle dog at 0.1 mg/kg, po by cassette assay; format: ADME, organism-based, Canis lupus familiaris; conditions: in vivo
# [9] = Total clearance in Beagle dog at 0.1 mg/kg, iv by cassette assay; format: ADME, organism-based, Canis lupus familiaris; design: dose 0.1 mg/kg, route intravenous; conditions: in vivo
# [10] = AUC (0 to 2 hrs) in Beagle dog at 0.1 mg/kg, po by cassette assay; format: ADME, organism-based, Canis lupus familiaris; design: time < 2 hr, dose 0.1 mg/kg, route oral; conditions: plasma
# [11] = Metabolic stability assessed as intrinsic clearance in dog liver microsome in presence of NADPH-generating system; format: ADME, Canis lupus familiaris; conditions: liver microsomes
# [12] = Bioavailability in dog at 0.1 mg/kg, po; format: ADME, organism-based, Canis lupus familiaris; conditions: in vivo
# [13] = Total clearance in dog at 0.1 mg/kg, iv; format: ADME, organism-based, Canis lupus familiaris; design: dose 0.1 mg/kg, route intravenous; conditions: in vivo
# [14] = AUC (0 to 24 hrs) in rat at 1.0 mg/kg, po; format: ADME, organism-based; design: time < 24 hr, dose 1 mg/kg, route oral; conditions: plasma
# [15] = Terminal half life in rat plasma at 1.0 mg/kg, iv; format: ADME, organism-based; design: dose 1 mg/kg, route intravenous; conditions: read-out: beta t1/2 (converted)
# [16] = Total clearance in rat at 1.0 mg/kg, iv; format: ADME, organism-based; design: dose 1 mg/kg, route intravenous; conditions: in vivo
# [17] = Cmax in dog at 0.1 mg/kg, po; format: ADME, organism-based, Canis lupus familiaris; design: dose 0.1 mg/kg, route oral; conditions: in vivo
# [18] = Terminal half life in dog at 0.1 mg/kg, iv; format: ADME, organism-based, Canis lupus familiaris; design: dose 0.1 mg/kg, route intravenous; conditions: in vivo, read-out: beta t1/2 (converted)
# [19] = Bioavailability in rat at 1.0 mg/kg, po; format: ADME, organism-based; conditions: in vivo
# [20] = AUC (0 to 24 hrs) in dog at 0.1 mg/kg, po; format: ADME, organism-based, Canis lupus familiaris; design: time < 24 hr, dose 0.1 mg/kg, route oral; conditions: plasma
# [21] = Cmax in rat at 1.0 mg/kg, po; format: ADME, organism-based; design: dose 1 mg/kg, route oral; conditions: in vivo
EC50 [2] [nM],EC50 [3] [nM],Structure (SMILES),also measured
,,CC(C)Oc1cc(-c2ccc(CCNC[C@H](O)c3ccccc3)cc2)ccc1C(=O)O,fraction unbound [1]: 0.14
300,0.14,CC(C)Cc1cc(-c2ccc(CCN[C@@H](C)[C@H](O)c3ccccc3)cc2)ccc1C(=O)O,
84,0.5,CC(C)Oc1cc(-c2ccc(OCCNC[C@H](O)c3cccc(Cl)c3)cc2)ccc1C(=O)O,
110,0.32,CC(C)COc1cc(-c2ccc(OCCNC[C@H](O)c3cccc(Cl)c3)cc2)ccc1C(=O)O,
690,0.43,CCCOc1cc(-c2ccc(CCN[C@@H](C)[C@H](O)c3ccccc3)cc2)ccc1C(=O)O,EC50 [4]: > 10000 nM
280,0.91,CC(C)Oc1cc(-c2ccc(CC(C)(C)NC[C@H](O)c3ccccc3)cc2)ccc1C(=O)O,
> 1000,7.4,CC(C)Oc1cc(-c2ccc(C[C@H](CO)NC[C@H](O)c3ccccc3)cc2)ccc1C(=O)O,
91,0.16,O=C(O)c1ccc(-c2ccc(OCCNC[C@H](O)c3ccccc3)cc2)cc1OC1CCCCC1,
210,1.2,CCCOc1cc(-c2ccc(OCCNC[C@H](O)c3ccccc3)cc2)ccc1C(=O)O,
400,0.55,CC(C)COc1cc(-c2ccc(OCCNC[C@H](O)c3ccccc3)cc2)ccc1C(=O)O,
500,2.4,CC(C)Oc1cc(-c2ccc(CCNC[C@H](O)c3ccc(Cl)cc3)cc2)ccc1C(=O)O,
> 1000,8.1,CC(C)Oc1cc(-c2ccc(CCNC[C@H](O)c3cccc(N)c3)cc2)ccc1C(=O)O,
> 1000,2.6,CC(C)Oc1cc(-c2ccc(CCNC[C@H](O)c3ccc(N)cc3)cc2)ccc1C(=O)O,
> 1000,30,CC(C)Oc1cc(-c2ccc(CCNC[C@H](O)c3cccc(NS(C)(=O)=O)c3)cc2)ccc1C(=O)O,
130,0.19,CC(C)Oc1cc(-c2ccc(CCNC[C@H](O)c3ccc(N)nc3)cc2)ccc1C(=O)O,EC50 [4]: > 10000 nM
500,0.14,CC(C)Oc1cc(-c2ccc(CCN[C@@H](C)[C@H](O)c3ccc(O)cc3)cc2)ccc1C(=O)O,
510,2.4,CC(C)Oc1cc(-c2ccc(OCCNC[C@H](O)c3ccccc3)cc2)ccc1C(=O)O,
320,2.1,CC(C)Oc1cc(-c2ccc(CCNC[C@H](O)c3cccc(F)c3)cc2)ccc1C(=O)O,
440,0.062,CC(C)Oc1cc(-c2ccc(CCNC[C@H](O)c3cccc(O)c3)cc2)ccc1C(=O)O,
> 1000,0.26,CC(C)Cc1cc(-c2ccc(CCNC[C@H](O)c3cccnc3)cc2)ccc1C(=O)O,
39,0.035,Nc1ccc([C@@H](O)CNCCc2ccc(-c3ccc(C(=O)O)c(OC4CCCCC4)c3)cc2)cn1,EC50 [4]: 1100 nM
,,CCOC(=O)COc1ccc2c(c1)C[C@@H](NC[C@H](O)c1cccc(Cl)c1)CCC2,fraction unbound [1]: 0.06

Structure (SMILES),EC50 [2] [nM],EC50 [3] [nM],also measured
CC(C)Oc1cc(-c2ccc(C[C@@H](C)NC[C@H](O)c3cccnc3)cc2)ccc1C(=O)O,80,0.099,EC50 [4]: > 1000 nM
C[C@H](Cc1ccc(-c2ccc(C(=O)O)c(OC3CCCCC3)c2)cc1)NC[C@H](O)c1cccnc1,24,0.069,
CC(C)COc1cc(-c2ccc(C[C@@H](C)NC[C@H](O)c3ccccc3)cc2)ccc1C(=O)O,130,0.041,Vd [5]: 30.8 L/kg; AUC(0-t) at 24 h [6]: 44.5 ng·h/mL; half-life [7]: 17.7 h; bioavailability [8]: 0.4%; clearance [9]: 39 mL/min/kg; AUC(0-t) at 2 h [10]: 0.2 ng·h/mL
CC(C)Cc1cc(-c2ccc(OCCNC[C@H](O)c3cccc(Cl)c3)cc2)ccc1C(=O)O,15,0.68,
CCCOc1cc(-c2ccc(NCCNC[C@H](O)c3cccc(Cl)c3)cc2)ccc1C(=O)O,11,0.21,
CCCOc1cc(-c2ccc(CCCNC[C@H](O)c3cccc(Cl)c3)cc2)ccc1C(=O)O,180,0.7,
O=C(O)c1ccc(-c2ccc(OCCNC[C@H](O)c3cccc(Cl)c3)cc2)cc1OC1CCCCC1,52,0.27,
CC(C)Oc1cc(-c2ccc(C[C@@H](C)NC[C@H](O)c3cccc(Cl)c3)cc2)ccc1C(=O)O,37,0.19,
CCOc1cc(-c2ccc(C[C@@H](C)NC[C@H](O)c3ccccc3)cc2)ccc1C(=O)O,62,0.31,Vd [5]: 1.9 L/kg; AUC(0-t) at 24 h [6]: 477 ng·h/mL; half-life [7]: 9.9 h; bioavailability [8]: 73%; clearance [9]: 3.5 mL/min/kg; AUC(0-t) at 2 h [10]: 350 ng·h/mL
C[C@H](Cc1ccc(-c2ccc(C(=O)O)cc2)cc1)NC[C@H](O)c1cccc(Cl)c1,13,0.18,
C[C@@H](Cc1ccc(-c2ccc(C(=O)O)cc2)cc1)NC[C@H](O)c1cccc(Cl)c1,12,6,
C[C@H](Cc1ccc(-c2ccc(C(=O)O)cc2)cc1)NC[C@H](O)c1ccccc1,22,0.3,EC50 [4]: > 1000 nM
C[C@H](Cc1ccc(-c2ccc(C(=O)O)c(OC3CCCCC3)c2)cc1)NC[C@H](O)c1ccccc1,28,0.042,Vd [5]: 1.13 L/kg; CLint scaled [11]: < 0.1 mL/min/kg; AUC(0-t) at 24 h [6]: 24.3 ng·h/mL; half-life [7]: 0.35 h; bioavailability [8]: 0%; clearance [9]: 68.9 mL/min/kg
C[C@H](Cc1ccc(-c2ccc(C(=O)O)cc2)cc1)NC[C@H](O)c1cccnc1,75,0.49,EC50 [4]: > 1000 nM; bioavailability [12]: 59.7%; clearance [13]: 4.4 mL/min/kg; AUC(0-t) at 24 h [14]: 103 ng·h/mL; half-life [15]: 1.91 h; clearance [16]: 34.3 mL/min/kg; Cmax [17]: 30.5 ng/mL; half-life [18]: 6.4 h; bioavailability [19]: 25.2%; AUC(0-t) at 24 h [20]: 207 ng·h/mL; Cmax [21]: 22 ng/mL
CC(C)Oc1cc(-c2ccc(CCNC[C@H](O)c3ccc(O)c(NS(C)(=O)=O)c3)cc2)ccc1C(=O)O,150,0.26,
COc1cc(-c2ccc(C[C@@H](C)NC[C@H](O)c3ccccc3)cc2)ccc1C(=O)O,83,0.79,
